The values below come from ChEMBL document CHEMBL3137381, “MMV Box Onchocerca lienalis screening set”.

Format in all cases: functional
Test [1] has as its system Onchocerca lienalis. As to the kind of experiment: MMV: Percent motility assay at a compound concentration of 7.8e-7 M. Activity score legend: 3: Active, 2: Moderately active; 1: Inactive, 0: Toxic. Conditions: at 0.78 µM.
For test [2], the system named is Onchocerca lienalis. As to the kind of experiment: MMV: Percent motility assay at a compound concentration of 1.9e-7 M. Activity score legend: 3: Active, 2: Moderately active; 1: Inactive, 0: Toxic. The following applies: at 0.19 µM.
In test [3] the test system is Onchocerca lienalis. As to the kind of experiment: MMV: Percent motility assay at a compound concentration of 1.25e-5 M. Activity score legend: 3: Active, 2: Moderately active; 1: Inactive, 0: Toxic. The following applies: at 12.5 µM.
Test [4] deals with Onchocerca lienalis. Description: MMV: Percent motility assay at a compound concentration of 3.1e-6 M. Activity score legend: 3: Active, 2: Moderately active; 1: Inactive, 0: Toxic. The following applies: at 3.1 µM.

As for `COc1ccc2c(c1)C1(Nc3ccccc3-c3nc4ccccc4n31)C(=O)N2` (stereo not drawn), the Motility with Onchocerca lienalis [1], in the test with Onchocerca lienalis [2], with Onchocerca lienalis [3] and in the test with Onchocerca lienalis [4] was 100% in each case.
As to `COc1cccc(Cn2c(Oc3ccccc3)nc3c2c(=O)n(C)c(=O)n3C)c1`, the Motility with Onchocerca lienalis [1], with Onchocerca lienalis [2], with Onchocerca lienalis [3] and in the test with Onchocerca lienalis [4] was 100% throughout.
As to `CCOc1c(Cl)cc(CNCC(O)c2ccccc2)cc1OC` (stereo not drawn), the Motility with Onchocerca lienalis [1], with Onchocerca lienalis [2], in the test on Onchocerca lienalis [3] and in the test on Onchocerca lienalis [4] was 100% in each case.
In the case of `OC(CNCC1CCCO1)Cn1c2ccc(Cl)cc2c2cc(Cl)ccc21` (stereo not drawn), the Motility with Onchocerca lienalis [1], in the test on Onchocerca lienalis [2], in the test on Onchocerca lienalis [3] and in the test with Onchocerca lienalis [4] was 100% each time.
For `COc1ccc2nc(C)cc(Nc3ccccc3O)c2c1`, the Motility in the test on Onchocerca lienalis [1], with Onchocerca lienalis [2], with Onchocerca lienalis [3] and in the test on Onchocerca lienalis [4] was 100% each time.
Take `CCn1nc(-c2ccc(C(=O)OC)cc2)nc2c(=O)n(C)c(=O)nc1-2`: the Motility in the test on Onchocerca lienalis [1], in the test with Onchocerca lienalis [2], in the test on Onchocerca lienalis [3] and with Onchocerca lienalis [4] was 100% throughout.
`CC1(c2ccccc2)Nc2ccccc2-c2nc3ccccc3n21` (stereo not drawn): the Motility with Onchocerca lienalis [1], with Onchocerca lienalis [2], with Onchocerca lienalis [3] and in the test with Onchocerca lienalis [4] was 100% throughout.
As for `CC(C)(C)CC(C)(C)NCC(O)COc1ccc(Cl)cc1Cl` (stereo not drawn), the Motility with Onchocerca lienalis [1], in the test with Onchocerca lienalis [2], in the test with Onchocerca lienalis [3] and in the test on Onchocerca lienalis [4] was 100% each time.
With `O=C(Nc1ccc(Br)cc1)Nc1cccc(Cl)c1`, the Motility in the test with Onchocerca lienalis [1], in the test with Onchocerca lienalis [2], in the test with Onchocerca lienalis [3] and with Onchocerca lienalis [4] was 100% in each case.
For `CN(C)CCNc1cc(-c2ccccc2)nc2ccccc12`, the Motility with Onchocerca lienalis [1], in the test with Onchocerca lienalis [2], with Onchocerca lienalis [3] and in the test with Onchocerca lienalis [4] was 100% throughout.
As for `COc1ccc2nc(C)cc(Nc3ccc(Cl)cc3)c2c1`, the Motility with Onchocerca lienalis [1] is 100%; in the test with Onchocerca lienalis [2], 100%; with Onchocerca lienalis [3], 0%; in the test with Onchocerca lienalis [4], 100%.
For the compound `CCC(O)c1ccc(Br)cc1NC(=O)c1cccc(Cl)c1` (stereo not drawn), the Motility in the test with Onchocerca lienalis [1], with Onchocerca lienalis [2], in the test on Onchocerca lienalis [3] and in the test on Onchocerca lienalis [4] was 100% each time.
For `Cc1sc2ncnc(Sc3nc4ccccc4[nH]3)c2c1C`, the Motility with Onchocerca lienalis [1], in the test with Onchocerca lienalis [2], in the test with Onchocerca lienalis [3] and with Onchocerca lienalis [4] was 100% throughout.
`CC(=O)Nc1nnc(SCc2c(C)cc(C(C)(C)C)cc2C)s1`: the Motility with Onchocerca lienalis [1], in the test with Onchocerca lienalis [2], in the test with Onchocerca lienalis [3] and in the test on Onchocerca lienalis [4] was 100% in each case.
Turning to `O=C(Nc1ccc(CN2CCOCC2)cc1)c1ccc(-c2cc(Cl)ccc2Cl)o1`, the Motility in the test on Onchocerca lienalis [1], in the test with Onchocerca lienalis [2], with Onchocerca lienalis [3] and in the test with Onchocerca lienalis [4] was 100% in each case.
With `Cc1cc(Nc2cccc(F)c2)nc(NCc2ccccc2)n1`, the Motility stood at 100% with Onchocerca lienalis [1], 100% in the test with Onchocerca lienalis [2], 33.33% in the test with Onchocerca lienalis [3] and 100% with Onchocerca lienalis [4].
Take `COCCn1c(C)nc2ccccc2c1=O`: the Motility in the test on Onchocerca lienalis [1], with Onchocerca lienalis [2], in the test on Onchocerca lienalis [3] and with Onchocerca lienalis [4] was 100% in each case.
For the compound `O=C(Nc1cccc(-c2nc3ccccc3[nH]2)c1)c1cccc(NC(=O)c2ccco2)c1`, the Motility with Onchocerca lienalis [1], in the test with Onchocerca lienalis [2], in the test on Onchocerca lienalis [3] and with Onchocerca lienalis [4] was 100% throughout.
As for `O=C(NC1CCN(Cc2ccccc2)CC1)c1cc(-c2cccnc2)nc2ccc(Cl)cc12`, the Motility in the test on Onchocerca lienalis [1], in the test with Onchocerca lienalis [2], in the test on Onchocerca lienalis [3] and in the test on Onchocerca lienalis [4] was 100% throughout.
With `CCN(Cc1ccccc1)C1CCN(Cc2cc(Br)ccc2O)CC1.O=C(O)C(=O)O`, the Motility with Onchocerca lienalis [1], with Onchocerca lienalis [2], in the test on Onchocerca lienalis [3] and with Onchocerca lienalis [4] was 100% in each case.
Take `COc1ccc(-c2nonc2NC(=O)c2cccc(Cl)c2)cc1OC`: the Motility with Onchocerca lienalis [1], with Onchocerca lienalis [2], in the test with Onchocerca lienalis [3] and in the test with Onchocerca lienalis [4] was 100% throughout.
For the compound `Cc1cc(NC(=O)c2ccc(-c3ccccc3)cc2)no1`, the Motility with Onchocerca lienalis [1], in the test on Onchocerca lienalis [2], in the test on Onchocerca lienalis [3] and with Onchocerca lienalis [4] was 100% each time.
For `CCOc1cc2c(cc1OCC)C(c1cc(C)c(O)c(C)c1)NCC2.Cl` (stereo not drawn), the Motility with Onchocerca lienalis [1], in the test with Onchocerca lienalis [2], with Onchocerca lienalis [3] and in the test with Onchocerca lienalis [4] was 100% each time.
On to `O=C1CC(O)(C(F)(F)C(F)(F)F)Oc2ccccc21` (stereo not drawn), for which the Motility in the test on Onchocerca lienalis [1], in the test with Onchocerca lienalis [2], in the test on Onchocerca lienalis [3] and in the test with Onchocerca lienalis [4] was 100% each time.
`COc1cc(SC)ccc1C(=O)N1CCCC(C)C1` (stereo not drawn): the Motility with Onchocerca lienalis [1], with Onchocerca lienalis [2], with Onchocerca lienalis [3] and with Onchocerca lienalis [4] was 100% each time.
For the compound `CC(C)c1ccc(CNCC(O)c2ccccc2)cc1.Cl` (stereo not drawn), the Motility in the test with Onchocerca lienalis [1], in the test with Onchocerca lienalis [2], in the test with Onchocerca lienalis [3] and in the test on Onchocerca lienalis [4] was 100% each time.
As for `Cc1ccc(NC(=O)Nc2cccc(Cl)c2)cc1F`, the Motility with Onchocerca lienalis [1], with Onchocerca lienalis [2], with Onchocerca lienalis [3] and in the test on Onchocerca lienalis [4] was 100% in each case.
Turning to `O=C(O)C(=O)O.Oc1ccc(Br)cc1CN1CCN(Cc2cccc(F)c2)CC1`, the Motility in the test on Onchocerca lienalis [1], in the test with Onchocerca lienalis [2], in the test on Onchocerca lienalis [3] and in the test on Onchocerca lienalis [4] was 100% each time.
In the case of `O=c1nc(C=Cc2ccc(Cl)cc2)oc2ccccc12`, the Motility in the test on Onchocerca lienalis [1], in the test on Onchocerca lienalis [2], in the test with Onchocerca lienalis [3] and with Onchocerca lienalis [4] was 100% throughout.
In the case of `O=C(NCc1ccco1)C1CCN(S(=O)(=O)c2ccc(Br)cc2)CC1`, the Motility in the test with Onchocerca lienalis [1], in the test with Onchocerca lienalis [2], with Onchocerca lienalis [3] and in the test on Onchocerca lienalis [4] was 100% each time.
With `CN(C)c1ccc(N2C(N)=NC(N)=NC2(C)C)cc1`, the Motility with Onchocerca lienalis [1], in the test with Onchocerca lienalis [2], with Onchocerca lienalis [3] and in the test with Onchocerca lienalis [4] was 100% throughout.
In the case of `COc1ccc(Nc2nc(NCc3ccccc3)c3ccccc3n2)cc1`, the Motility in the test with Onchocerca lienalis [1] worked out at 100%; in the test with Onchocerca lienalis [2] it was 100%; with Onchocerca lienalis [3] it was 33.33%; in the test on Onchocerca lienalis [4], 100%.
As to `COc1cc2c(cc1OC)C1=NNC(=O)C1=NC(C)(C)C2`, the Motility in the test on Onchocerca lienalis [1], with Onchocerca lienalis [2], in the test on Onchocerca lienalis [3] and in the test with Onchocerca lienalis [4] was 100% each time.
`Oc1c(CN2CCN(c3ccccc3F)CC2)cc(Br)c2cccnc12`: the Motility in the test on Onchocerca lienalis [1] stood at 100%; in the test on Onchocerca lienalis [2] it was 100%; in the test with Onchocerca lienalis [3] it was 66.66%; in the test with Onchocerca lienalis [4] it was 100%.
Take `Oc1c2c(nc3cc(-c4ccccc4)nn13)CCCC2`: the Motility in the test with Onchocerca lienalis [1], in the test with Onchocerca lienalis [2], in the test on Onchocerca lienalis [3] and with Onchocerca lienalis [4] was 100% each time.
`CCCCc1c(C)nc2c(OC)cccc2c1O`: the Motility with Onchocerca lienalis [1], in the test with Onchocerca lienalis [2], in the test with Onchocerca lienalis [3] and in the test with Onchocerca lienalis [4] was 100% in each case.
For `CCOC(=O)C1CCN(C(=O)CN2C(=O)c3ccccc3C2c2c[nH]c3ccccc23)CC1` (stereo not drawn), the Motility with Onchocerca lienalis [1], with Onchocerca lienalis [2], with Onchocerca lienalis [3] and with Onchocerca lienalis [4] was 100% throughout.
On to `CCOc1ccc(CCNC(=O)c2cccs2)cc1OCC`, for which the Motility in the test with Onchocerca lienalis [1], in the test with Onchocerca lienalis [2], with Onchocerca lienalis [3] and in the test with Onchocerca lienalis [4] was 100% throughout.
Consider `CCCCOc1ccc(C(=O)Nc2cc(C)on2)cc1`, for which the Motility with Onchocerca lienalis [1], with Onchocerca lienalis [2], in the test with Onchocerca lienalis [3] and in the test on Onchocerca lienalis [4] was 100% throughout.
Turning to `Br.CCN(CC)S(=O)(=O)c1ccc(-c2csc(Nc3ccc(C)c(C)c3)n2)cc1`, the Motility in the test with Onchocerca lienalis [1], with Onchocerca lienalis [2], with Onchocerca lienalis [3] and in the test on Onchocerca lienalis [4] was 100% throughout.
Consider `Cc1c(C)n(CC(O)CNC2CCCCC2C)c2ccccc12` (stereo not drawn), for which the Motility in the test on Onchocerca lienalis [1], with Onchocerca lienalis [2], in the test with Onchocerca lienalis [3] and with Onchocerca lienalis [4] was 100% each time.
`CCCCN(CCCC)S(=O)(=O)c1ccc(NC(=O)c2ccco2)cc1`: the Motility in the test on Onchocerca lienalis [1], in the test on Onchocerca lienalis [2], with Onchocerca lienalis [3] and in the test with Onchocerca lienalis [4] was 100% each time.
